Patent US11369609B2, “Small molecule Wnt inhibitor as treatment for dyslipidemia” (Yale University, priority 2019, dated 2022)

Assays:
kidney endothelial cells = experiment: Fatty acid oxidation (14CO2 release from [14C]palmitate) in isolated kidney endothelial cells; format: in vivo, mice; settings: for FAO, as measured by 14CO2 release: diabetic CD-1 mice treated for 4 weeks
Description: Endothelial cells from the kidneys of non-diabetic and diabetic mice were isolated using a standardized kit (Miltenyl Biotech, USA) by following the manufacturer's instructions. Briefly, kidneys were isolated and minced into small pieces. Using a series of enzymatic reactions by treating the tissue with trypsin and Collagenase type I solution, a single cell suspension was created. The pellet was dissolved with CD31 magnetic beads and the CD31-labelled cells were separated on a magnetic separator. The cells were further purified on a column. Cell number was counted by hemocytometer and cells were plated on 0.1% gelatin coated Petri dishes.
Cultured isolated kidney endothelial cells were incubated with medium containing 0.75 mmol/L palmitate (conjugated to 2% free fatty acid-free BSA/[^14C] palmitate at 2 μCi/mL) for 2 h. One mL of the culture medium was transferred to a sealable tube, the cap of which housed a Whatman filter paper disc. ^14CO2 trapped in the media was then released by acidification of media using 60% perchloric acid. Radioactivity that had become adsorbed onto the filter discs was then quantified by liquid scintillation counting.
It is increasingly recognized that defects in central metabolism contribute to kidney fibrosis (69, 76). Defective FA metabolism in EC leads to EndMT events (77). To investigate whether FA metabolism was deranged in the model, radiolabeled [^14C]palmitate uptake experiments were performed in isolated EC from mouse kidneys. FA uptake was higher in isolated EC from the diabetic kidneys of the more fibrotic strain (diabetic CD-1) when compared to kidney EC from the less-fibrotic strain (diabetic C57BL/6). […] FA oxidation (FAO) was also assessed by measuring the ^14CO2 release from radiolabeled [^14C]palmitate in cultured EC isolated from kidneys. […] In the next set of experiments, diabetic CD-1 mice were treated with the FA synthase inhibitor C75, the FAO inhibitor etomoxir, the PPARα agonist fenofibrate, and the cholesterol-lowering drug simvastatin for 4 weeks. […] (FIG. 23A). Fenofibrate and C75 restored the level of GR protein in CD31 positive cells, whereas etomoxir and simvastatin suppressed it (FIG. 23B).

diabetic CD-1 mice = experiment: FA metabolism modulators and simvastatin in diabetic CD-1 mice (renal fibrosis); format: in vivo; settings: for fibrogenic phenotype / level of fibrosis in kidneys / fibronectin mRNA level in diabetic kidneys / level of GR protein in CD31 positive cells / αSMA mRNA level in diabetic kidneys: diabetic CD-1 mice treated for 4 weeks; for CPT1a level / β-catenin level: diabetic CD-1 mice, kidney immunohistochemistry
Description: (§1) All experiments were performed in accordance with the National Institute of Health (NIH) Guidelines for the Care of Laboratory Animals. Mice lacking the endothelial glucocorticoid receptor (GR) (known as GR^ECKO) and those lacking this receptor on the Apo E null background (DKO) were generated as previously described (6). The induction of diabetes in CD-1 mice and C57B/L6 mice was performed according to previously established experimental protocols (38-42). Briefly, diabetes was induced in 10-week-old GR^ECKO mice with five consecutive intraperitoneal (IP) doses of streptozotocin (STZ) 50 mg/kg in 10 mmol/L citrate buffer (pH 4.5). Wnt inhibitor (LGK974) was provided to GR^ECKO and control littermate at 5 mg/kg at a frequency of six doses per week for 8 weeks (43). Etomoxir (20 mg/kg) and c75 (15 mg/kg) were dosed (ip) three times per week for 3 weeks in the GR^ECKO and control littermate. A single IP dose of 200 mg/kg STZ was used to induce diabetes in CD-1 mice. Fenofibrate (100 mg/kg), simvastatin (40 mg/kg), were dosed orally for 4 weeks in diabetic CD-1 mice. All mice were sacrificed after 4 weeks of treatment and tissues and blood were harvested. Urine albumin levels were assayed using a Mouse Albumin ELISA Kit (Exocell, Philadelphia, Pa.).
(§2) A point-counting method was utilized to evaluate the relative area of the mesangial matrix. PAS-stained glomeruli from each mouse were analyzed using a digital microscope screen grid containing 540 (27×20) points. Masson's trichrome-stained images were evaluated by ImageJ software, and the fibrotic areas were estimated.
(§3) Deparaffinized sections were incubated with picrosirius red solution for 1 hour at room temperature. The slides were washed twice with acetic acid solution for 30 seconds per wash. The slides were then dehydrated in absolute alcohol three times, cleared in xylene, and mounted with a synthetic resin. Sirius red staining was analyzed using ImageJ software, and fibrotic areas were quantified.
(§4) Paraffin-embedded kidney sections (5 μm thick) were deparaffinized and rehydrated (2 min in xylene, four times; 1 min in 100% ethanol, twice; 1 min in 95% ethanol; 45 s in 70% ethanol; and 1 min in distilled water), and the antigen was retrieved in a 10 mM citrate buffer pH 6 at 98° C. for 60 min. To block the endogenous peroxidase, all sections were incubated in 0.3% hydrogen peroxide for 10 min. The immunohistochemistry was performed using a Vectastain ABC Kit (Vector Laboratories, Burlingame, Calif.). Mouse anti-[…] antibody (1:100) and CPT1a (Abnova; H00001374-DO1P; 1:100) antibody was used. In the negative controls, the primary antibody was omitted and replaced with the blocking solution.
Frozen kidney sections (5 μm) were used for immunofluorescence; double positive labeling with CD31/αSMA, CD31/TGFβR1 and E-cadherin/αSMA was measured. Briefly, frozen sections were dried and placed in acetone for 10 min at −30° C. Once the sections were dried, they were washed twice in phosphate-buffered saline (PBS) for 5 min and then blocked in 2% bovine serum albumin/PBS for 30 min at room temperature. Thereafter, the sections were incubated in primary antibody (1:100) for 1 hour and washed in PBS (5 min) three times. Next, the sections were incubated with the secondary antibodies for 30 min, washed with PBS three times (5 min each), and mounted with mounting medium with DAPI (Vector Laboratories, Burlingame, Calif.). The immune-labeled sections were analyzed by fluorescence microscopy. For each mouse, original magnification of ×400 pictures were obtained from six different areas, and quantification was performed.
(§5) Total RNA was isolated using standard Trizol protocol. RNA was reverse transcribed using the iScript cDNA Synthesis kit (Bio-Rad) and qPCR was performed on a Bio-Rad C1000 Touch thermal cycler using the resultant cDNA, as well as qPCR Master mix and gene specific primers.
It is increasingly recognized that defects in central metabolism contribute to kidney fibrosis (69, 76). […]

[1] = system: diabetic GR^ECKO mice and control littermates; experiment: Etomoxir and C75 in diabetic control littermates and diabetic GR^ECKO mice; format: in vivo; settings: for body weight: diabetic control littermates and GR^ECKO mice, ip three times per week for 3 weeks
Description: as §1, §2, §3, §4
Etomoxir and C75 were also tested in the diabetic control littermates and diabetic GR^ECKO mice. […] (FIG. 17D-E).

[2] = system: canonical Wnt signaling pathway; experiment: qPCR of canonical Wnt-dependent genes in Wnt3a-treated MLECs; format: cell-based, mouse
Description: as §5, with “ChIP DNA or total RNA was used for qPCR. Total” for “Total”, “cDNA,” for “cDNA, as well as”, “master” for “Master”, “primers. The following primers were used: […]” for “primers.”
MLECS were cultured and starved for 4 hours in 0.5% FBS. Cells were treated for 4 hours with Wnt3a (200 ng/ml).
To further examine the specificity of GR in this interaction, a similar experiment in GR siRNA-treated cells was performed.

[3] = Wnt3a-conditioned media 6 hours, then DEX 100 nM 1 hour

Compound	FAO, as measured by 14CO2 release (kidney endothelial cells)	FAO in kidney EC (kidney endothelial cells; diabetic GR^ECKO mice)	FAO in kidney EC (kidney endothelial cells; diabetic control littermates)	fibrogenic phenotype / level of fibrosis in kidneys (diabetic CD-1 mice)	fibronectin mRNA level in diabetic kidneys (diabetic CD-1 mice)	level of GR protein in CD31 positive cells (diabetic CD-1 mice)	αSMA mRNA level in diabetic kidneys (diabetic CD-1 mice)	CPT1a level (diabetic CD-1 mice)	β-catenin level (diabetic CD-1 mice)	body weight [1]	CPT1a level in kidneys ([1]; diabetic control mice)	level of β-catenin in kidneys ([1]; diabetic control mice)	renal fibrogenic phenotype ([1]; diabetic control mice)	further results
C=C1C(=O)OC(CCCCCCCC)C1C(=O)O (stereo not shown) [C75]	increased the level of FAO	unable to rescue the level of FAO	restored FAO	ameliorated the fibrogenic phenotype	downregulated	restored	downregulated	induced the level of CPT1a	suppressed the level of β-catenin	no significant differences	restored CPT1a	completely diminished the level of β-catenin	clearly abolished the renal fibrogenic phenotype	
CCOC(=O)[C@@]1(CCCCCCOc2ccc(Cl)cc2)CO1 [etomoxir]	significant suppression	significant suppression in FAO	significant suppression in FAO	exacerbated the fibrosis	upregulated	suppressed	upregulated	significant suppression	induced	no significant differences	suppressed the CPT1a level	increased the expression level of β-catenin	accelerated the renal fibrogenic phenotype	CPT1a level in kidneys ([1]; diabetic GR^ECKO mice): suppressed the CPT1a level; level of β-catenin in kidneys ([1]; diabetic GR^ECKO mice): increased the expression level of β-catenin; renal fibrogenic phenotype ([1]; diabetic GR^ECKO mice): accelerated the renal fibrogenic phenotype
C[C@@H]1C[C@H]2[C@@H]3CCC4=CC(=O)C=C[C@]4(C)[C@@]3(F)[C@@H](O)C[C@]2(C)[C@@]1(O)C(=O)COP(=O)(O)O [DEX, Dexamethasone phosphate]														sox17 expression, control siRNA vs GR siRNA cells ([2]; Wnt3a 200 ng/ml 4 hours, DEX 100 nM 1 hour): suppressed sox17 expression to a much greater extent in control-siRNA treated cells than in GR siRNA-treated cells; axin2 expression [2, 3]: a similar pattern was observed; sox17 expression [2, 3]: suppressed expression
Wnt3a														sox17 expression, effect of Wnt3a in GR siRNA-treated cells ([2]; Wnt3a 200 ng/ml 4 hours, GR knockdown): augmented; sox17 expression, effect of Wnt3a ([2]; Wnt3a-conditioned media, MLECs): induced
